From PubChem BioAssay (NCI)
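Cultured in 96-well plates, cells were exposed to test compound for 48 hours across five concentrations. At the GI50, growth is halved. Definition used: TGI = concentration required for complete inhibition of growth.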

Key:
Experiment in all cases: NCI anticancer screen, dose series, 48 h
UACC-62 melanoma = test system: UACC-62 melanoma
EKVX NSCLC = test system: EKVX NSCLC
SK-MEL-5 melanoma = test system: SK-MEL-5 melanoma
SF-539 CNS = test system: SF-539 CNS
PC-3 prostate = test system: PC-3 prostate
LOX IMVI melanoma = test system: LOX IMVI melanoma
CAKI-1 renal = test system: CAKI-1 renal
IGROV1 ovarian = test system: IGROV1 ovarian
A498 renal = test system: A498 renal
UACC-257 melanoma = test system: UACC-257 melanoma

SMILES | GI50 (UACC-62 melanoma) [nM] | TGI (UACC-62 melanoma) [µM] | GI50 (EKVX NSCLC) [nM] | TGI (EKVX NSCLC) [µM] | GI50 (SK-MEL-5 melanoma) [µM] | TGI (SK-MEL-5 melanoma) [µM] | GI50 (SF-539 CNS) [nM] | TGI (SF-539 CNS) [µM] | GI50 (PC-3 prostate) [µM] | TGI (PC-3 prostate) [µM] | GI50 (LOX IMVI melanoma) [µM] | TGI (LOX IMVI melanoma) [µM] | GI50 (CAKI-1 renal) [nM] | TGI (CAKI-1 renal) [µM] | GI50 (IGROV1 ovarian) [nM] | TGI (IGROV1 ovarian) [µM] | GI50 (A498 renal) [nM] | TGI (A498 renal) [µM] | GI50 (UACC-257 melanoma) [nM] | TGI (UACC-257 melanoma) [µM]
COc1ccc(-c2nn(-c3cccc(Cl)c3)cc2-c2cc(-c3ccccc3)[nH]c(=O)c2C#N)cc1 | 2260 | 11.1 | 1370 | > 50 | 5.76 | > 50 | 1010 | 2.75 | 6.01 | 41.6 | 8.97 | > 50 | 1300 | 6.09 | 1890 | 7.71 | 171 | 1.6 |  | 
O=C(Nc1cc(Cl)ccc1O)c1ccc(Nc2ccnc(C(F)(F)F)c2)cc1 | 2300 | 15.5 | 2840 | 9.63 | 2.19 | 4.95 | 3290 | > 100 | 2.72 | 9.02 | 3.09 | 76.9 | 2020 | 7.77 | 2340 | 8.19 | 2390 | 7.17 | 3530 | > 100
O=C(Nc1cc(Nc2ncccc2-c2ncnc3nc[nH]c23)ccc1F)c1cc(C(F)(F)F)cc(C(F)(F)F)c1 | 380 | 2.32 | 4100 | > 10 | 1.12 | 2.76 | 1300 | 3.04 | 2.34 | 5.19 | 0.384 | 2.02 |  |  | 1630 | 7.2 | 648 | 3.92 | 474 | > 10
COc1ccc(-c2nccn2-c2ccc(OC)cc2)cc1 | 13900 | 48.9 | 41500 | > 100 | 14.2 | 30.4 | 28000 | 90.4 | 24.9 | > 100 | 32.2 | 97.9 | 22900 | > 69.5 | 25200 | > 82 | 14400 | 55.9 | 26000 | > 88
Cn1cc(-c2csc(-c3cn(CCCCN4CCCCC4)c4ccccc34)n2)c2cccnc21 | 1790 | 3.27 | 1580 | 3.03 |  |  |  |  | 1.61 | 3.03 | 1.71 | 3.21 |  |  |  |  | 1610 | 3 |  | 
COc1ccc(-c2cnnn2-c2nonc2-n2cccc2)cc1 | 529 | 28.2 | 547 | > 94.7 | 0.324 | 13.2 | 321 | 4 | 0.331 | 31.9 | 0.594 | 19 | 245 | > 67.1 | 536 | > 92.8 | 183 | 0.893 | 373 | 35.1
O=C(c1ccco1)c1c(C(F)(F)F)n([O-])c2ccc(C(F)(F)F)cc2[n+]1=O | 1110 | 2.32 | 727 | 2.07 | 0.508 | 1.09 | 475 | 0.91 | 0.132 | 0.262 | 0.127 | 0.257 | 224 | 0.49 | 368 | 1.48 | 1410 | 2.76 | 1490 | 3.06
CCCC/C(=C\C1=C(C)C(=O)C(OC)=C(OC)C1=O)C(=O)O | > 100000 | > 100 | > 100000 | > 100 | > 100 | > 100 | > 100000 | > 100 | > 100 | > 100 | > 100 | > 100 | > 100000 | > 100 | > 100000 | > 100 | > 100000 | > 100 | > 100000 | > 100
NNCCc1ccc(NC(=O)CCCc2ccc(C(=O)Nc3ccccc3N)cc2)cc1 | 3790 | 31.8 | 51100 | > 100 | 6.19 | 21.7 | 9570 | > 100 | 12 | > 100 | 15.9 | > 100 | 7990 | > 100 | 31000 | > 100 | 6540 | 28.5 |  | 
O=C(/C=C/c1ccccc1)c1ccccc1 |  | > 10 |  | > 10 |  | > 10 |  | > 10 |  | > 10 |  | 4.11 |  | > 10 |  | > 10 |  | > 10 |  | > 10
CCC/C=C/C=C/C1CC(O)C(O)C(=O)C1CO (centres undefined) |  | > 100 |  | > 100 |  | > 100 |  | > 100 |  | > 100 |  | > 100 |  | > 100 |  | > 100 |  |  |  | > 100
O=C(O)c1cccc(COc2ccc([N+](=O)[O-])cc2Cl)c1 | > 100000 | > 100 | 549 | 4.87 | 40.1 | > 100 |  |  | > 100 | > 100 | 94 | > 100 | > 100000 | > 100 | 74600 | > 100 |  |  |  | 
O=C(/C(=C\c1c(-c2ccccc2)[nH]c2ccccc12)S(=O)(=O)c1ccccc1)c1ccccc1 | 8950 | > 100 | 4560 | > 100 | 9.01 | > 100 | > 100000 | > 100 | 4.96 | > 100 | 74.7 | > 100 | 3130 | > 100 | > 100000 | > 100 |  |  | > 100000 | > 100
COC(c1ccc(C(C)(C)C)cc1)(c1ccc(C(C)(C)C)cc1)c1ccc(C(C)(C)C)cc1 |  | > 100 |  | > 100 |  | > 100 |  | > 100 |  | > 100 |  | > 100 |  | > 100 |  | > 100 |  | > 100 |  | 
